How the values were obtained:
[1] = system: TGFβ2; assay: Q-PCR, TGFβ2 mRNA expression in HaCaT; type: cell-based, human
[2] = system: TGFβ1; assay: ELISA, TGFβ1-specific protein in HaCaT; type: cell-based, human; details: 48 h; both experiments
[3] = system: HGF; assay: ELISA, HGF protein synthesis/secretion in HaCaT; type: cell-based, human; details: both experiments
Protocol: (§1) For Q-PCR: Determination of VEGF, HGF and EGF mRNA expression in cell lysates • 2. For ELISA: Determination of VEGF, HGF and EGF protein synthesis/secretion into the culture medium
(§2) The initial cell count was • 1. for Q-PCR: 140,000 cells/well in 1500 μl culture medium • 2. for ELISA: 140,000 cells/well in 1.500 μl culture medium.
(§3) The trial duration for • 1. Q-PCR was 24 hours (single treatment at time 0 h) • 2. ELISA was 48 hours (double treatment at time 0 h and 24 h without changing the medium).

[4] = system: VEGF; assay: ELISA, VEGF protein synthesis/secretion into the culture medium of HaCaT; type: cell-based, human; details: 48 hours
Protocol: as §1, §2, §3
(§4) The study was carried out • 1. for Q-PCR by determining VEGF mRNA expression in cell lysates • 2. for ELISA by determining VEGF protein synthesis/secretion in the culture medium.

[5] = system: GM-CSF; assay: Q-PCR, experiments regarding GM-CSF in HaCaT; type: cell-based, human; details: all tested caffeine concentrations; 24 h; Experiments 1 and 2
Protocol: as §1, §2, §3

[6] = system: human epidermal HaCaT keratinocytes; assay: fluorometric CyQUANT cell proliferation study (DNA content); type: cell-based; details: 0.00005, 0.0005, 0.005% caffeine; 24, 48 or 72 hours; best effects after 72 hours
Protocol: To investigate the effect of caffeine on cell proliferation of human epidermal HaCaT keratinocytes, human HaCaT keratinocytes were subjected to a CyQUANT viability assay, wherein the following series of experiments were performed: • 1. P22 Experiment 1 (biological assay 1) • 2. P24 Experiment 2 (biological assay 2).
The trial durations were 24, 48 or 72 hours.
The study was carried out by fluorometric CyQUANT study, wherein the DNA content was measured, reflecting cell proliferation.

[7] = system: TNFα; assay: Q-PCR, TNFα-specific mRNA in HaCaT; type: cell-based, human; details: both experiments
[8] = system: TGFβ1; assay: Q-PCR, TGFβ1 mRNA expression in HaCaT; type: cell-based, human; details: all tested caffeine concentrations; 24 h; Experiments 1 and 2
[9] = system: HGF; assay: Q-PCR, HGF mRNA expression in HaCaT cell lysates; type: cell-based, human; details: both experiments
Protocol: as §1, §2, §3

[10] = system: GM-CSF; assay: ELISA, experiments regarding GM-CSF in HaCaT; type: cell-based, human; details: 48 h
Protocol: as §1, §2, §3

[11] = system: human epidermal HaCaT keratinocytes; assay: colourimetric MTT viability study
Protocol: To investigate the effect of caffeine on the biological functions of human epidermal HaCaT keratinocytes, cell experiments were performed on human epidermal HaCaT keratinocytes, wherein the following studies were carried out: • 1. P13-A biological assay 1 with two independent studies • 2. P13-B biological assay 2 with two independent studies.
The initial cell count was 5000 cells/well in 100 μl culture medium.
The culture medium was HaCaT medium (DMEM with the addition of 10% FBS, 1% penicillin-streptomycin, 0.5% fungizone).
The treatment groups were as follows: • 1. Control group (CTRL) • 2. 0.00005% caffeine • 3. 0.0001% caffeine • 4. 0.0005% caffeine • 5. 0.001% caffeine • 6. 0.005% caffeine
The trial durations were 24, 48 and 72 hours.
The study took the form of a colourimetric MTT study.

[12] = system: TNFα; assay: ELISA, TNFα-specific protein in HaCaT; type: cell-based, human; details: both experiments
[13] = system: VEGF; assay: Q-PCR, VEGF mRNA expression in HaCaT cell lysates; type: cell-based, human; details: all caffeine concentrations; 24 hours; Experiments 1 and 2
Protocol: as §1, §2, §3, §4

[14] = 0.0005% caffeine, both experiments

Cn1c(=O)c2c(ncn2C)n(C)c1=O [caffeine]
mRNA expression of TGFβ2 ([1]; certain caffeine concentrations, 24 h, Experiment 2): apparently increase mRNA expression of TGFβ2
synthesis/production/secretion of TGFβ2 (overall conclusion) ([1]; despite contradictory results in the two Q-PCR experiments): most likely does not alter
level of TGFβ1-specific protein [2]: below the detection limit
expression of HGF-specific protein [3]: below the detection limit
VEGF protein production/secretion compared to the control group [4, 14]: increases VEGF protein production/secretion
VEGF protein production/secretion compared to the control group ([4]; 0.005% caffeine, Experiment 2): also showed an effect
mRNA expression of VEGF compared to the control group (under experiments regarding GM-CSF) [5]: apparently increased the mRNA expression of VEGF
cell proliferation (DNA content) [6]: appears to promote cell proliferation
expression of TNFα-specific mRNA [7]: below the detection limit
mRNA expression of TGFβ1 [8]: None of the tested caffeine concentrations changed the mRNA expression of TGFβ1
expression of HGF-specific mRNA [9]: below the detection limit
VEGF protein production/secretion compared to the control group (under experiments regarding GM-CSF) ([10]; 0j.005% caffeine, Experiment 2): also showed an effect
VEGF protein production/secretion compared to the control group (under experiments regarding GM-CSF) [10, 14]: increased VEGF protein production/secretion
cytotoxicity ([11]; 0.00005-0.005% caffeine, 24, 48 and 72 hours): none of the concentrations tested showed cytotoxicity
number of viable cells ([11]; certain concentrations of caffeine): increased the number of viable cells
expression of TNFα-specific protein [12]: below the detection limit
mRNA expression of VEGF compared to the control group [13]: appear to increase mRNA expression of VEGF

From US20240180914A1, “ORAL GEL COMPOSITION AND USE THEREOF” (DR. KURT WOLFF GMBH & CO. KG, priority 2021, published 2024)
